For series [1], the system named is nucleic acid synthesis. As to conditions: background statement; cited from earlier work.
For series [2] the following is noted: clinical tests conducted in the United States; cited from earlier work.
Series [3] has as its system P388 mouse leukemia cells. Put plainly: Growth inhibition of P388 mouse leukemia cells, cell count after 72 hours. Type of series: cell-based. The method, then:
A test compound was added to a suspension containing P388 mouse leukemia cells (2×10^4 /ml) and the cells were cultured in 5% CO2 at […]. After 72 hours, the number of the cells were counted to determine the IC50 value.

The subject of series [4] is Mouse leukemia P388 cells. Put plainly: MTT assay on mouse leukemia P388 cells, 72 hours. The class given is cell-based. Here is the method: Mouse leukemia P388 cells, harvested from a pre-culture medium, were suspended in a fresh PRMI 1640 medium supplemented with 10% FCS (GIBCO) and inoculated in a volume of 0.05 ml at 2.5×10^3/ml cells per well in 96-well microplates. Following 24 hour incubation at 37° C. under 5% CO2 and 100 relative humidity, 0.05 ml of the culture medium or a culture medium containing a test compound was dispersed into each well. The cells in the medium were then incubated for 72 hours. At 4 hours before the end of incubation, 0.01 ml of MTT [3-(4,5-dimethylthiazol-2-yl)-2,5-diphenyl-2H-tetrazolium bromide] solution dissolved in phosphate-buffer saline at a concentration of 5 mg/ml was added. After 4 hour exposure with the MTT solution, the reaction was stopped by the addition of 0.2 ml/well of 1M HCl:i-propanol (1:24) followed by thorough mixing. The optical density of the solution was measured by EAR 400 (SLT Labinstruments, Austria) at 540 nm.
Background: Tetrazolium assays rely on reduction of a dye to a coloured formazan, in cell work by metabolically active cells.

The test system of series [5] is P388 murine leukemia cells. Put plainly: Antitumour effect against P388 murine leukemia in male CDF-1 mice (median survival time). The class given is in vivo, mouse. The following applies: for Mice Survived for 40 days: intraperitoneal on day 1, CDF-1 mice; for T/C (median survival time of treated group against control group): intraperitoneal on day 1, P388 cells inoculated on day 0, CDF-1 mice. The method, then:
P388 murine leukemia cells (1×10^6 /mouse) were inoculated into male CDF-1 mice (5-6 mice per group, age 7-10 weeks, weighing 21-34 g) on day 0, and the test compound was administered intraperitoneally on day 1.
The test compound were dissolved in water or physiological saline after having been converted into sodium salts, or suspended into a physiological saline containing 0.9% benzyl alcohol, 0.4% Tween 80, or 0.5% CMC.
The antitumour effect was evaluated by the percentage of the median survival time of the treated group (T) against that of the control group (C).

Setting [6] is: repeated in the table of Experimental Example 3, footnote *, read-out: IC50 (in parentheses; value obtained by determination in Experimental Example 2).

Values after ≈ are worked out from the molar mass of the structure shown. Where two headings read alike, the source gives them in different places. Some results are limits rather than exact numbers.

On to `CC[C@@]1(O)C(=O)OCc2c1cc1n(c2=O)Cc2cc3ccccc3nc2-1` [Camptothecin], for which the antitumour activity entry in series [1] is on record as “known to exhibit an antitumour activity because of its capability of inhibiting nucleic acid synthesis”. Moreover, the “safety in clinical tests” value in series [2] is given as “found to have a problem in view of safety”.
As a reminder, the IC50 is the concentration that gives 50% inhibition. On to `CCC1(O)C(=O)OCc2c1cc1n(c2=O)Cc2c-1nc1ccc(O)c3c1c2CCC3` (stereo not shown) [Example 1, 9-ethyl-2,3-dihydro-4,9-dihydroxy-1H,12H-benzo[de]pyrano[3',4': 6,7]indolizino[1,2-b]quinoline-10,13(9H,15H)-dione], for which the IC50 in series [3] (cell count, read-out: IC50) stood at 1.47 ng/mL (≈ 3.63 nM); in series [3] (setting [6]) it was 1.47 ng/mL (≈ 3.63 nM); in series [4], 3.8 ng/mL (≈ 9.4 nM). Besides, in series [5] (240 mg/kg), the “Mice Survived for 40 days” value is reported as 5 Out of 6. Besides, the “T/C (median survival time of treated group against control group)” value in series [5] (240 mg/kg) was greater than 392%.
Take `CCC1(O)C(=O)OCc2c1cc1n(c2=O)Cc2c-1nc1ccc(C)c3c1c2CCO3` (stereo not shown) [Example 2, 9-ethyl-1,2-dihydro-9-hydroxy-4-methyl-12H-pyrano[4,3,2-de]pyrano[3',4':6,7]indolizino[1,2-b]quinoline-10,13(9H,15H)-dione]: the IC50 in series [3] (cell count, read-out: IC50) is 0.81 ng/mL (≈ 2 nM). Further, in series [5] (480 mg/kg), the “Mice Survived for 40 days” value is given as 4 Out of 6 and the “T/C (median survival time of treated group against control group)” value was greater than 376%.
With `CCC1(O)C(=O)OCc2c1cc1n(c2=O)Cc2c-1nc1ccc(C)c3c1c2CCS3` (stereo not shown) [Example 3, 9-ethyl-1,2-dihydro-9-hydroxy-4-methyl-12H-thiino[4,3,2-de]pyrano[3',4':6,7]indolizino[1,2-b]quinoline-10,13(9H,15H)-dione], the IC50 in series [3] (cell count, read-out: IC50) came out at 4.32 ng/mL (≈ 10.3 nM). In addition, in series [5] (480 mg/kg), the “Mice Survived for 40 days” value is recorded as 5 Out of 6 and the “T/C (median survival time of treated group against control group)” value is recorded as greater than 400%.
In the case of `CCC1(O)C(=O)OCc2c1cc1n(c2=O)Cc2c-1nc1ccc(C)c3c1c2CCN3` (stereo not shown) [Example 4, 9-ethyl-1,2-dihydro-9-hydroxy-4-methyl-3H,12H-pyrano[3',4': 6,7]indolizino[1,2-c]benzo[ij][2,7]naphthilidine-10,13(9H,15H)-dione], the IC50 in series [3] (cell count, read-out: IC50) was found to be 3.73 ng/mL (≈ 9.25 nM); in series [3] (setting [6]), 3.73 ng/mL (≈ 9.25 nM); in series [4], 4.46 ng/mL (≈ 11.1 nM).
As to `CCC1(O)C(=O)OCc2c1cc1n(c2=O)Cc2c-1nc1ccc(Cl)c3c1c2CCC3` (stereo not shown) [Example 5, 4-chloro-9-ethyl-2,3-dihydro-9-hydroxy-1H,12H-benzo[de]pyrano[3',4':6,7]indolizino[1,2-b]quinoline-10,13(9H,15H)-dione], the IC50 in series [3] (cell count, read-out: IC50) stood at 3.3 ng/mL (≈ 7.8 nM).
For the compound `CCC1(O)C(=O)OCc2c1cc1n(c2=O)Cc2c-1nc1ccc(O)c3c1c2CC3` (stereo not shown) [Example 8, 8-ethyl-1,2-dihydro-3,8-dihydroxy-11H-cyclopenta[de]pyrano[3',4':6,7]indolizino[1,2-b]quinoline-9,12(8H,14H)-dione], the IC50 in series [3] (cell count, read-out: IC50) was determined as 3.03 ng/mL (≈ 7.76 nM).
With `CCC1(O)C(=O)OCc2c1cc1n(c2=O)Cc2c-1nc1ccc(O)c3c1c2CCO3` (stereo not shown) [Example 11, 9-ethyl-1,2-dihydro-4,9-dihydroxy-12H-pyrano[4,3,2-de]pyrano[3',4':6,7]indolizino[1,2-b]quinoline-10,13(9H,15H)-dione], the IC50 was 2.64 ng/mL (≈ 6.5 nM) in series [3] (cell count, read-out: IC50); 2.64 ng/mL (≈ 6.5 nM) in series [3] (setting [6]); 4.05 ng/mL (≈ 9.97 nM) in series [4].
For the compound `CCC1(O)C(=O)OCc2c1cc1n(c2=O)Cc2c-1nc1ccc(C#N)c3c1c2CCS3` (stereo not shown) [Example 16, 4-cyano-1,2-dihydro-9-ethyl-9-hydroxy-12H-thiino[4,3,2-de]pyrano[3',4':6,7]indolizino[1,2-b]quinoline-10,13(9H,15H)dione], the IC50 in series [3] (cell count, read-out: IC50) was found to be 7.23 ng/mL (≈ 16.8 nM). In series [5] (60 mg/kg), the “Mice Survived for 40 days” value was 4 Out of 6 and the “T/C (median survival time of treated group against control group)” value was 443%.
With `CCC1(O)C(=O)OCc2c1cc1n(c2=O)Cc2c-1nc1ccc(N)c3c1c2CCS3` (stereo not shown) [Example 20, 4-amino-1,2-dihydro-9-ethyl-9-hydroxy-12H-thiino[4,3,2,-de]pyrano[3',4': 6,7]indolizino [1,2-b]quinoline-10,13(9H,15H)-dione], the IC50 in series [3] (cell count, read-out: IC50) was 0.92 ng/mL (≈ 2.18 nM).
As to `CCC1(O)C(=O)OCc2c1cc1n(c2=O)Cc2c-1nc1cccc3c1c2CCS3` (stereo not shown) [Example 21, 1,2-dihydro-9-ethyl-9-hydroxy-12H-thiino[4,3,2,-de]pyrano[3',4': 6,7]indolizino[1,2-b]quinoline-10,13(9H,15H)-dione], in series [3] (cell count, read-out: IC50), the IC50 was 3.41 ng/mL (≈ 8.39 nM).
In turn, `CC[C@@]1(O)C(=O)OCc2c1cc1n(c2=O)Cc2c-1nc1ccc(CN)c3c1c2CCS3.Cl` [Example 31, (s)-4-aminomethyl-9-ethyl-1,2-dihydro-9-hydroxy-12H-thiino[4,3,2-de]pyrano[3',4':6,7]indolizino[1,2-b]quinoline-10,13(9H,15H)-dione hydrochloride] registered a half-inhibitory concentration (IC50) in series [4] of 3.66 ng/mL.
In series [4], `CC[C@@]1(O)C(=O)OCc2c1cc1n(c2=O)Cc2c-1nc1ccc(CN)c3c1c2CCC3.Cl` [Example 33, (s)-4-aminomethyl-9-ethyl-2,3-dihydro-9-hydroxy-1H,12H-benzo[de]pyrano[3',4':6,7]indolizino[1,2-b]quinoline-10,13(9H,15H)-dione hydrochloride] came in with an IC50 of 5.52 ng/mL.
With `CC[C@@]1(O)C(=O)OCc2c1cc1n(c2=O)Cc2c-1nc1ccc(CNC)c3c1c2CCS3.Cl` [Example 36, (s)-9-ethyl-1,2-dihydro-9-hydroxy-4-methylaminomethyl-12H-thiino[4,3,2-de]pyrano[3',4':6,7]indolizino[1,2-b]quinoline-10,13(9H,15H)-dione hydrochloride], the IC50 in series [4] came to 12.2 ng/mL.
With `CC[C@@]1(O)C(=O)OCc2c1cc1n(c2=O)Cc2c-1nc1ccc(CN)c3c1c2CCO3.Cl` [Example 38, (s)-4-aminomethyl-9-ethyl-1,2-dihydro-9-hydroxy-12H-pyrano[4,3,2-de]pyrano[3',4':6,7]indolizino[1,2-b]quinoline-10,13(9H,15H)-dione hydrochloride], in series [4], the IC50 was determined as 6.36 ng/mL.
The same measure, in the same setting: under `CCC1(O)C(=O)OCc2c1cc1n(c2=O)Cc2c-1nc1ccc(N)c3c1c2CCC3` (stereo not shown) [Example 39, 4-amino-9-ethyl-2,3-dihydro-9-hydroxy-1H,12H-benzo[de]pyrano [3',3':6,7]indolizino[1,2-b]quinoline-10,13(9H,15H)-dione] stands 2.97 ng/mL (≈ 7.36 nM).

The values above are taken from patent publication US5061795A, “Hexa-cyclic compound” (Daiichi Pharmaceutical Co., Ltd., priority 1987, dated 1991).
